Article PMC8836832, “Novel Aurora A Kinase Inhibitor Fangchinoline Enhances Cisplatin–DNA Adducts and Cisplatin Therapeutic Efficacy in OVCAR-3 Ovarian Cancer Cells-Derived Xenograft Model” (International Journal of Molecular Sciences, 2022)
Counter-ions that a name gives are not always drawn.

How the values were obtained:
MDH2774 = test: cells; parameters: MTT cell viability assay, absorbance at 575 nm, MDAH 2774 cells; conditions: Homo sapiens, MDAH 2774, 48 h
Description: (§1) The cell viability effects of 12 candidate compounds were evaluated by MTT assay and compared against a control group (medium containing 0.1% DMSO). The cells were seeded in 96-well plates and pre-cultured for 24 h (1 × 10^5 cells/well). The cells were then incubated for 48 h with the 12 identified compounds (at 0, 3.125, 6.25, 12.5, 25, 50, or 100 µM) dissolved in 0.1% DMSO. After 48 h, MTT solution (2.5 mg/mL in DMEM) was added to the cells and incubated for 1 h. DMSO was added to dissolve the purple crystals, and the absorbance values were measured at 575 nm using a spectrophotometer (SPECTROstar Nano; BMG LABTECH, Offenburg, Germany). Each treatment group has four biological replicates (n = 4). The IC50 values for each compound in each cell line were obtained using the results of the MTT assay and calculated using the GraphPad Prism 6 program (GraphPad Software, Inc., San Diego, CA, USA). A CI higher than 1.0 indicates an antagonistic effect, a CI equal to 1.0 indicates an additive effect, and a CI lower than 1.0 indicates a synergistic effect.

ES2 = test: cells; parameters: MTT cell viability assay, absorbance at 575 nm, ES-2 cells; conditions: Homo sapiens, ES-2, 48 h
Description: as §1

OVCAR3 = test: cells; parameters: MTT cell viability assay, absorbance at 575 nm, OVCAR-3 cells; conditions: Homo sapiens, OVCAR-3, 48 h
Description: as §1

SKOV3 = test: cells; parameters: MTT cell viability assay, absorbance at 575 nm, SK-OV-3 cells; conditions: Homo sapiens, SK-OV-3, 48 h
Description: as §1

[1] = target: T1, Aurora A kinase (Aurora A) (Homo sapiens, UniProt O14965); test: in vitro Aurora A kinase assay kit (Promega V1931, luminescence), dose-dependent at […]; supported by CETSA in MDAH […] and OVCAR-3 cells; assay type: biochemical
T1 construct: gene AURKA
T1 sequence (O14965 1-403): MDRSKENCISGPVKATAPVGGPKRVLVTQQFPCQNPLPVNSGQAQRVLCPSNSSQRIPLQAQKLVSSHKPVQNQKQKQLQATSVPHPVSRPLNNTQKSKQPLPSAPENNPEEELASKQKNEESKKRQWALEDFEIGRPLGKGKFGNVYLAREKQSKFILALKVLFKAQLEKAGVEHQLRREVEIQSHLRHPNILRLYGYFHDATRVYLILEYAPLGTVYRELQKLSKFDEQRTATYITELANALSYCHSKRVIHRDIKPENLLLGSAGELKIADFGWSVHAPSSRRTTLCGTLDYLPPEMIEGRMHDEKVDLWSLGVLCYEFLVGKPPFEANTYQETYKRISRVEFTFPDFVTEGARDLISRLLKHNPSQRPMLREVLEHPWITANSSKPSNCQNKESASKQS

SMILES	IC50 (MDH2774) [µM]	IC50 (ES2) [µM]	IC50 (OVCAR3) [µM]	IC50 (SKOV3) [µM]	in vitro Aurora A kinase assay kit (Promega V1931, luminescence), dose-dependent [1]
COc1ccc2cc3[n+](cc2c1OC)CCc1cc2c(cc1-3)OCO2 [Berberine]	12.8 ± 1.24	87.6 ± 0.02	20.56 ± 0.021	39.38 ± 0.02	
COc1ccc2cc1Oc1ccc(cc1)C[C@H]1c3cc(c(OC)cc3CCN1C)Oc1c(O)c(OC)cc3c1[C@H](C2)N(C)CC3 [fangchinoline]	8.71 ± 0.24	25.1 ± 0.65	9.66 ± 0.3	11.7 ± 1.2	Figure 2C shows that fangchinoline treatment significantly decreased Aurora A enzymatic activity in a dose-dependent manner.
CN1CCc2cc3c(cc2C(=O)Cc2cc4c(cc2C1)OCO4)OCO3 [Protopine]			25.4 ± 0.68	26.1 ± 0.49	
O=C(/C=C/c1ccc(O)cc1)CC(=O)/C=C/c1ccc(O)cc1 [Bisdemethoxycurcumin]	26 ± 0.53	45.5 ± 0.5	24.9 ± 0.74	25.1 ± 1.9	
CC(=O)O[C@@]12CO[C@@H]1C[C@H](O)[C@@]1(C)C(=O)[C@H](O)C3=C(C)[C@@H](OC(=O)[C@H](O)[C@@H](NC(=O)OC(C)(C)C)c4ccccc4)C[C@@](O)([C@@H](OC(=O)c4ccccc4)[C@H]21)C3(C)C [Docetaxel]	24.55 ± 0.011	50.38 ± 0.25	40.59 ± 0.015	21.48 ± 0.01	
Cc1cc(O)c2c(c1)C(=O)c1cc(O)cc(O)c1C2=O [Emodin]	34.32 ± 0.021	50.2 ± 2.09	22.64 ± 0.03	34.7 ± 0.02	
COc1cc2c(cc1OC)-c1cc3ccc(OC)c(OC)c3c[n+]1CC2 [Palmatine hydrochloride]	51.29 ± 0.34			59.33 ± 0.02	
C/C=C(\C)C(=O)N[C@@H](c1ccccc1)[C@@H](O)C(=O)O[C@H]1C[C@@]2(O)[C@@H](OC(=O)c3ccccc3)[C@@H]3[C@]4(OC(C)=O)CO[C@@H]4C[C@H](O)[C@@]3(C)C(=O)[C@H](OC(C)=O)C(=C1C)C2(C)C [Cephalomannine]	41.72 ± 0.01		41.78 ± 0.013	10.79 ± 0.01	
O=c1cc(-c2ccc(O)c(-c3c(O)cc(O)c4c(=O)cc(-c5ccc(O)cc5)oc34)c2)oc2cc(O)cc(O)c12 [Amentoflavone]	99.32 ± 0.03			78.9 ± 0.8	
O=C(O)c1cc(O)c2c(c1)[C@@H]([C@H]1c3cc(C(=O)O)cc(O)c3C(=O)c3c(O[C@@H]4O[C@H](CO)[C@@H](O)[C@H](O)[C@H]4O)cccc31)c1cccc(O[C@@H]3O[C@H](CO)[C@@H](O)[C@H](O)[C@H]3O)c1C2=O [Sennoside B]				> 100	
O=C(/C=C/c1ccc(O)cc1)c1ccc(O)cc1O [Isoliquiritigenin]	50.36 ± 0.48	51.46 ± 0.32	25.8 ± 1.21	26 ± 0.44	
